Assay results reported in PubChem BioAssay AID248 (DTP/NCI, 2004).
“And” between values parts separate entries of the source, which are not always exact repeats. Equal entries are not always repeated. Toxic doses and inconclusive results are not listed. Cut-off read from the data, not from the text of the source: active = T/C of 150% or more; inactive = T/C below 125%.

Tested on: L1210 leukemia ip in BDF1 mice, survival T/C
Test: NCI In Vivo Anticancer Drug Screen. Data for tumor model L1210 Leukemia (intraperitoneal) in B6D2F1 (BDF1) mice
Conditions: endpoint: mean survival time, higher = longer survival
Procedure, shortened: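 Read-out is survival time, reported as the treated-group measurement over the vehicle-control measurement.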

[1] = dose: 100.0 mg/kg/injection, schedule: Q01DX009 (ip), vehicle: Klucel (hydroxypropylcellulose) (HPC)
[2] = dose: 200.0 mg/kg/injection, schedule: Q01DX009 (ip), vehicle: Klucel (hydroxypropylcellulose) (HPC)
[3] = dose: 400.0 mg/kg/injection, schedule: Q01DX009 (ip), vehicle: Klucel (hydroxypropylcellulose) (HPC)
[4] = dose: 100.0 mg/kg/injection, schedule: Q01DX001 (ip), vehicle: Klucel (hydroxypropylcellulose) (HPC)
[5] = dose: 100.0 mg/kg/injection, schedule: Q04DX003 (ip), vehicle: Klucel (hydroxypropylcellulose) (HPC)
[6] = dose: 200.0 mg/kg/injection, schedule: Q01DX001 (ip), vehicle: Klucel (hydroxypropylcellulose) (HPC)
[7] = dose: 200.0 mg/kg/injection, schedule: Q04DX003 (ip), vehicle: Klucel (hydroxypropylcellulose) (HPC)
[8] = dose: 400.0 mg/kg/injection, schedule: Q04DX003 (ip), vehicle: Klucel (hydroxypropylcellulose) (HPC)
[9] = dose: 100.0 mg/kg/injection, schedule: Q04DX003 (ip), vehicle: saline with Tween-80
[10] = dose: 200.0 mg/kg/injection, schedule: Q04DX003 (ip), vehicle: saline with Tween-80
[11] = dose: 400.0 mg/kg/injection, schedule: Q04DX003 (ip), vehicle: saline with Tween-80
[12] = dose: 100.0 mg/kg/injection, schedule: Q04DX002 (ip), vehicle: Klucel (hydroxypropylcellulose) (HPC)
[13] = dose: 200.0 mg/kg/injection, schedule: Q04DX002 (ip), vehicle: Klucel (hydroxypropylcellulose) (HPC)
[14] = dose: 400.0 mg/kg/injection, schedule: Q04DX002 (ip), vehicle: Klucel (hydroxypropylcellulose) (HPC)

Measured: T/C

CCN(CC)S(=O)(=O)NC1C(=O)N(c2ccccc2)N(C)C1C (configuration not stated)
inactive: dose: 100.0 mg/kg/injection, schedule: Q04DX002 (ip), vehicle: saline with Tween-80 104 % of control | dose: 200.0 mg/kg/injection, schedule: Q04DX002 (ip), vehicle: saline with Tween-80 101 % of control | dose: 400.0 mg/kg/injection, schedule: Q04DX002 (ip), vehicle: saline with Tween-80 104 % of control

CCN(CC)C(=O)c1ccc(COc2cc(Cl)cc(Cl)c2)cc1
inactive: [1] 94 % of control | [2] 97 % of control | [3] 96 % of control

Cc1ccc(C(=O)CCCC(=O)O)c(O)c1
inactive: [4] 96 % of control | [1] 97 % of control | [5] 102 % of control | [6] 104 % of control | [2] 93 % of control | [7] 112 % of control | dose: 400.0 mg/kg/injection, schedule: Q01DX001 (ip), vehicle: Klucel (hydroxypropylcellulose) (HPC) 95 % of control | [3] 92 % of control | [8] 100 % of control

O=C(O)/C(=C\c1ccncc1)c1cccc2ccccc12
inactive: [9] 100 % of control | [2] 105 % of control | [10] 98 % of control | [3] 102 % of control | [11] 91 % of control

O=C(Nc1ccc(S(=O)(=O)NC2CCCCC2)cc1)OCc1ccccc1
inactive: dose: 100.0 mg/kg/injection, schedule: Q01DX001 (ip), vehicle: saline 95 % of control | dose: 200.0 mg/kg/injection, schedule: Q01DX001 (ip), vehicle: saline 89 % of control | dose: 400.0 mg/kg/injection, schedule: Q01DX001 (ip), vehicle: saline 95 % of control

O=C1CCCCC1C(=O)C(F)(F)F (configuration not stated)
inactive: dose: 12.5 mg/kg/injection, schedule: Q01DX009 (ip), vehicle: other 104 % of control | dose: 12.5 mg/kg/injection, schedule: Q04DX003 (ip), vehicle: other 103 % of control | dose: 25.0 mg/kg/injection, schedule: Q01DX009 (ip), vehicle: other 104 % of control | dose: 25.0 mg/kg/injection, schedule: Q04DX003 (ip), vehicle: other 93 % of control | dose: 50.0 mg/kg/injection, schedule: Q01DX009 (ip), vehicle: other 98 % of control | dose: 50.0 mg/kg/injection, schedule: Q04DX003 (ip), vehicle: other 97 % of control | dose: 75.0 mg/kg/injection, schedule: Q01DX009 (ip), vehicle: other 97 % of control | dose: 115.0 mg/kg/injection, schedule: Q01DX009 (ip), vehicle: other 87 % of control | dose: 170.0 mg/kg/injection, schedule: Q01DX009 (ip), vehicle: other 89 % of control

Cc1ccc(S(=O)(=O)Nc2ccccc2)cc1
inactive: [12] 100 % of control | [13] 94 % of control | [14] 91 % of control

NC(=Nc1ccc([N+](=O)[O-])cc1)c1ccc(C(N)=Nc2ccc([N+](=O)[O-])cc2)cc1
inactive: dose: 6.25 mg/kg/injection, schedule: Q01DX015 (ip), vehicle: methylcellulose (MC) 102 % of control | dose: 12.5 mg/kg/injection, schedule: Q01DX015 (ip), vehicle: methylcellulose (MC) 100 % of control | dose: 25.0 mg/kg/injection, schedule: Q01DX015 (ip), vehicle: methylcellulose (MC) 96 % of control | dose: 50.0 mg/kg/injection, schedule: Q01DX015 (ip), vehicle: methylcellulose (MC) 93 % of control | dose: 62.5 mg/kg/injection, schedule: Q01DX015 (ip), vehicle: methylcellulose (MC) 90 % of control

CCCn1c2c(c(=O)n(CC)c1=O)SC(OCC)C(=O)N2 (configuration not stated)
inactive: dose: 78.0 mg/kg/injection, schedule: Q01DX Z (ip), vehicle: other 96 % of control and 103 % of control | dose: 116.0 mg/kg/injection, schedule: Q01DX Z (ip), vehicle: other 108 % of control and 110 % of control | dose: 175.0 mg/kg/injection, schedule: Q01DX Z (ip), vehicle: other 116 % of control and 87 % of control | dose: 262.5 mg/kg/injection, schedule: Q01DX Z (ip), vehicle: other 92 % of control

C/C=C/Sc1ccccc1
inactive: dose: 75.0 mg/kg/injection, schedule: Q01DX001 (ip), vehicle: carboxymethylcellulose (CMC) 95 % of control | dose: 150.0 mg/kg/injection, schedule: Q01DX001 (ip), vehicle: carboxymethylcellulose (CMC) 101 % of control | dose: 300.0 mg/kg/injection, schedule: Q01DX001 (ip), vehicle: carboxymethylcellulose (CMC) 98 % of control

CCCCCCCCCCCCSCCOC(=O)C1C2CCC(O2)C1C(=O)O (configuration not stated)
inactive: dose: 12.5 mg/kg/injection, schedule: Q04DX003 (ip), vehicle: Klucel (hydroxypropylcellulose) (HPC) 96 % of control | dose: 25.0 mg/kg/injection, schedule: Q04DX003 (ip), vehicle: Klucel (hydroxypropylcellulose) (HPC) 100 % of control | dose: 50.0 mg/kg/injection, schedule: Q04DX003 (ip), vehicle: Klucel (hydroxypropylcellulose) (HPC) 90 % of control

CC1(c2ccccc2)O[C@@H]2C[C@H]3[C@@H]4CCC5=CC(=O)C=C[C@]5(C)[C@@]4(F)[C@@H](O)C[C@]3(C)[C@]2(C(=O)CO)O1 (some centres not stated)
inactive: dose: 100.0 mg/kg/injection, schedule: Q01DX001 (sc), vehicle: steriod suspending solution 117 % of control | dose: 200.0 mg/kg/injection, schedule: Q01DX001 (sc), vehicle: steriod suspending solution 98 % of control | dose: 400.0 mg/kg/injection, schedule: Q01DX001 (sc), vehicle: steriod suspending solution 107 % of control

CSc1nncc(=O)[nH]1.[Hg]
inactive: dose: 5.0 mg/kg/injection, schedule: Q01DX001 (ip), vehicle: carboxymethylcellulose (CMC) 91 % of control | dose: 10.0 mg/kg/injection, schedule: Q01DX001 (ip), vehicle: carboxymethylcellulose (CMC) 102 % of control

O=C(CC1(O)C(=O)Nc2ccccc21)c1ccccc1 (configuration not stated)
inactive: [5] 101 % of control | [7] 96 % of control | [8] 96 % of control

O=C(N=C(c1ccccc1)c1ccccc1)c1ccccc1
inactive: [9] 90 % of control | [10] 90 % of control | [11] 88 % of control

O=C(Nc1cccc2ccccc12)Oc1cccc2cccnc12
inactive: dose: 50.0 mg/kg/injection, schedule: Q01DX001 (ip), vehicle: Klucel (hydroxypropylcellulose) (HPC) 96 % of control | [4] 105 % of control | [6] 105 % of control

c1ccc2cc(SCCCN3CCOCC3)ccc2c1
inactive: dose: 100.0 mg/kg/injection, schedule: Q01DX009 (ip), vehicle: saline sonified 97 % of control | [5] 95 % of control | dose: 200.0 mg/kg/injection, schedule: Q01DX009 (ip), vehicle: saline sonified 116 % of control | [7] 95 % of control | [8] 90 % of control

Cc1c(C(=O)O)no[n+]1[O-]
inactive: dose: 100.0 mg/kg/injection, schedule: Q04DX002 (ip), vehicle: saline 104 % of control | dose: 200.0 mg/kg/injection, schedule: Q04DX002 (ip), vehicle: saline 95 % of control | dose: 400.0 mg/kg/injection, schedule: Q04DX002 (ip), vehicle: saline 87 % of control

CCC(=O)C1CCCCN1 (configuration not stated)
inactive: dose: 25.0 mg/kg/injection, schedule: Q04DX002 (ip), vehicle: saline 94 % of control | dose: 50.0 mg/kg/injection, schedule: Q04DX002 (ip), vehicle: saline 94 % of control

CCCCCC(C)NC(=O)NCCCl (configuration not stated)
inactive: [12] 89 % of control | [13] 92 % of control | [14] 87 % of control
